Patent US20020192703A1, “Immunoassay reagents and methods for determination of LSD and LSD metabolites” (priority 1995, published 2002)
Where a name gives a salt, the structure may show the parent alone. Read-outs that look alike come from different tables or passages of the source.

What was measured:
[1] = Dilution analysis of sample containing LSD metabolite, DPC RIA; assay type: binding; conditions: LSD equivalents
Description: (§1) In the following experiment, the results of the CEDIA® are compared with those of the DPC assay, and with those obtained using the Abuscreen® radioimmunoassay by Roche. While the amount of metabolite in the sample is not known in absolute terms, the behavior is tested by dilution analysis. Results are given in terms of LSD equivalents.

[2] = Dilution analysis of sample containing LSD metabolite, CEDIA; assay type: binding; conditions: for LSD ng/ml CEDIA: LSD equivalents
Description: as §1

[3] = Dilution analysis of sample containing LSD metabolite, Abuscreen RIA (Roche); assay type: binding; conditions: LSD equivalents
Description: as §1

monoclonal antibody 19A7 = assay type: binding, mice
Description: Cross-reactivity was tested by spiking various potential cross-reactants into human urine containing a preservative.

[4] = sample containing the metabolite, essentially free of LSD parent by GC/MS, undiluted
[5] = Concentration Added 50,000 ng/ml, 100 × observed dose / concentration added
[6] = Concentration Added 50,000 ng/ml, in human urine
[7] = Concentration Added 500,000 ng/ml, 100 × observed dose / concentration added
[8] = Concentration Added 500,000 ng/ml, in human urine

Q: For `CCN(CC)C(=O)[C@@H]1C=C2c3cccc4c3C(O)(C[C@H]2N(C)C1)C(=O)N4` (stereo partly shown) [LSD Metabolite], which “LSD ng/ml DPC RIA” value ([1]; metabolite sample diluted 1:3) is on record?
A: Its value is 0.03 ng/mL.

Q: And the “LSD ng/ml DPC RIA” value [1, 4]?
A: The value was 0.14 ng/mL.

Q: What about the “recognition of the metabolite by reagents of the invention relative to the Abuscreen assay” value ([2]; CEDIA versus Abuscreen RIA) of the same compound?
A: Its value is “about 2.5 fold”.

Q: And the “recognition of the metabolite by reagents of the invention relative to the DPC assay” value ([2]; CEDIA versus DPC RIA)?
A: Its value is “about 10 fold”.

Q: What about the “LSD ng/ml CEDIA” value ([2]; metabolite sample diluted 1:3) of the same compound?
A: Its value is 0.50 ng/mL.

Q: What about the “LSD ng/ml CEDIA” value [2, 4] of the same compound?
A: Its value is 1.32 ng/mL.

Q: And the “LSD ng/ml Abuscreen RIA” value ([3]; metabolite sample diluted 1:3)?
A: The value was 0.23 ng/mL.

Q: What about the “LSD ng/ml Abuscreen RIA” value [3, 4] of the same compound?
A: Its value is 0.62 ng/mL.

Q: Which “% Cross-Reactivity” value (monoclonal antibody 19A7; [5]) does the source give for `N[C@@H](Cc1cc(I)c(Oc2cc(I)c(O)c(I)c2)c(I)c1)C(=O)O` [Levothyroxine (T4), Levothyroxine] here?
A: The value was <0.0001%.

Q: And the “Concentration Observed” value (monoclonal antibody 19A7; [6])?
A: Its value is 0.0 ng/mL.

Q: For `CN1C[C@H](C(=O)O)C=C2c3cccc4[nH]cc(c34)C[C@H]21` [Lysergic Acid], which “% Cross-Reactivity” value (monoclonal antibody 19A7) is on record?
A: Its value is 0.00000%.

Q: What about the “Concentration Observed” value (monoclonal antibody 19A7) of the same compound?
A: The value was “≦0.01 ng/mL”.

Q: With `CN1C[C@H](CO)C=C2c3cccc4[nH]cc(c34)C[C@H]21` [Lysergol] as the compound, how does the “% Cross-Reactivity” value (monoclonal antibody 19A7; Concentration Added 5,000 ng/ml, 100 × observed dose / concentration added) read?
A: Its value is 0.00034%.

Q: What about the “Concentration Observed” value (monoclonal antibody 19A7; Concentration Added 5,000 ng/ml, in human urine) of the same compound?
A: The value was 0.01 ng/mL.

Q: For `CN[C@@H](C)Cc1ccccc1` [Methamphetamine], which “% Cross-Reactivity” value (monoclonal antibody 19A7; Concentration Added 200000 ng/mL, 100 × observed dose / concentration added) is on record?
A: The value was 0.00019%.

Q: What about the “Concentration Observed” value (monoclonal antibody 19A7; Concentration Added 200000 ng/mL, in human urine) of the same compound?
A: Its value is 0.45 ng/mL.

Q: Which results are given for `CC[C@@H](CO)NC(=O)[C@@H]1C=C2c3cccc4c3c(cn4C)C[C@H]2N(C)C1` [Methysergide Maleate]?
A: % Cross-Reactivity (monoclonal antibody 19A7; [5]): 0.00147%; Concentration Observed (monoclonal antibody 19A7; [6]): 0.74 ng/mL

Q: Which “% Cross-Reactivity” value (monoclonal antibody 19A7) does the source give for `CN1CC[C@]23c4c5ccc(O)c4O[C@H]2[C@@H](O)C=C[C@H]3[C@H]1C5` [Morphine] here?
A: Its value is <0.00001%.

Q: What about the “Concentration Observed” value (monoclonal antibody 19A7) of the same compound?
A: Its value is 0.0 ng/mL.

Q: Which “% Cross-Reactivity” value (monoclonal antibody 19A7; [7]) does the source give for `c1ccc(C2(N3CCCCC3)CCCCC2)cc1` [Phencyclidine] here?
A: Its value is 0.00002%.

Q: And the “Concentration Observed” value (monoclonal antibody 19A7; [8])?
A: The value was 0.11 ng/mL.

Q: For `CN(C)CCc1c[nH]c2cccc(O)c12` [Psilocyn], which “% Cross-Reactivity” value (monoclonal antibody 19A7; Concentration Added 10,000 ng/ml, 100 × observed dose / concentration added) is on record?
A: The value was 0.00000%.

Q: What about the “Concentration Observed” value (monoclonal antibody 19A7; Concentration Added 10,000 ng/ml, in human urine) of the same compound?
A: The value was “≦0.01 ng/mL”.

Q: For `C=CCC1(C(C)CCC)C(=O)NC(=O)NC1=O` (stereo not shown) [Secobarbital], which “% Cross-Reactivity” value (monoclonal antibody 19A7; [7]) is on record?
A: The value was <0.00001%.

Q: And the “Concentration Observed” value (monoclonal antibody 19A7; [8])?
A: Its value is 0.0 ng/mL.

Q: For `NCCc1c[nH]c2ccc(O)cc12` [Seretonine], which “% Cross-Reactivity” value (monoclonal antibody 19A7; Concentration Added 1,000,000 ng/ml, 100 × observed dose / concentration added) is on record?
A: The value was 0.00000%.

Q: What about the “Concentration Observed” value (monoclonal antibody 19A7; Concentration Added 1,000,000 ng/ml, in human urine) of the same compound?
A: Its value is “≦0.01 ng/mL”.

Q: Which “% Cross-Reactivity” value (monoclonal antibody 19A7; [7]) does the source give for `Cc1ccc(C(=O)c2ccc(CC(=O)O)n2C)cc1` [Tolmetin] here?
A: Its value is <0.00001%.

Q: And the “Concentration Observed” value (monoclonal antibody 19A7; [8])?
A: Its value is 0.0 ng/mL.

Q: Which “% Cross-Reactivity” value (monoclonal antibody 19A7; Concentration Added 100,000 ng/ml, 100 × observed dose / concentration added) does the source give for `N[C@@H](Cc1c[nH]c2ccccc12)C(=O)O` [Tryptophan] here?
A: The value was 0.00000%.

Q: What about the “Concentration Observed” value (monoclonal antibody 19A7; Concentration Added 100,000 ng/ml, in human urine) of the same compound?
A: The value was “≦0.01 ng/mL”.

Q: Which “% Cross-Reactivity” value (monoclonal antibody 19A7; Concentration Added 0.5 ng/ml, 100 × observed dose / concentration added) does the source give for `CCCN(C)C(=O)[C@@H]1C=C2c3cccc4[nH]cc(c34)C[C@H]2N(C)C1` [d-LAMPA, Lysergic acid methyl-propyl amide] here?
A: The value was 58.7%.

Q: And the “Concentration Observed” value (monoclonal antibody 19A7; Concentration Added 0.5 ng/ml, in human urine)?
A: The value was 0.29 ng/mL.
